The record followed here is ChEMBL document CHEMBL2029248, “Fused bicycles as arylketone bioisosteres leading to potent, orally active thiadiazole H3 antagonists” (Bioorg Med Chem Lett, 2012).

Series [1] concerns Mus musculus. As to the kind of experiment: Ex-vivo receptor occupancy in ICR mouse cortex assessed as displacement of [3H]N-alpha-methylhistamine from histamine H3 receptor at 10 mg/kg, po after 4 hrs post dose by scintillation counting. Type of series: functional. In general terms: In a radioligand displacement assay an active substance lowers the binding of a labelled ligand.

Series [2] deals with Histamine H3 receptor (Homo sapiens, UniProt Q9Y5N1). Description: Displacement of [3H]N-alpha-methylhistamine from recombinant human histamine H3 receptor expressed in HEK cell membranes after 30 mins by scintillation counting. Details: species or system HEK293.
Sequence of Histamine H3 receptor (Homo sapiens, UniProt Q9Y5N1) (Q9Y5N1 whole entry): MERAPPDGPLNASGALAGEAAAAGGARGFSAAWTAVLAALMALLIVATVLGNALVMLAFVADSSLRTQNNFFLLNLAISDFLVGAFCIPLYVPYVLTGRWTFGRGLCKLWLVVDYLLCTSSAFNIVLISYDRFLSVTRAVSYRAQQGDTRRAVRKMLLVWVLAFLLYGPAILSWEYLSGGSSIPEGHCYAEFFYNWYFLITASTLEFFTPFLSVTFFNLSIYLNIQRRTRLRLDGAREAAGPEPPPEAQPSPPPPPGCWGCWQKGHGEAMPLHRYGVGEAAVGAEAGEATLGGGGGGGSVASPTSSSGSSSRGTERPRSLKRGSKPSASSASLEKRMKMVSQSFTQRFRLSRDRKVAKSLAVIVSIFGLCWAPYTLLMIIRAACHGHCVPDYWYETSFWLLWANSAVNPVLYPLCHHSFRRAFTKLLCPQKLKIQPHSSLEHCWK
Series [3] is described as follows: Drug uptake in rat brain at 10 mg/kg, po after 4 hrs. Also on record: dose 10 mg/kg, route oral. Type of series: ADME, organism-based. The settings on record: read-out: Drug uptake.
Series [4] concerns Mus musculus. As to the kind of experiment: Antidiabetic activity in STZ-induced diabetic ICR mouse DIO model at 30 mg/kg, po qd for 2 days. Also on record: dose 30 mg/kg. Type of series: functional, organism-based.
The target of series [5] is Histamine H3 receptor (Mus musculus, UniProt P58406). As to the kind of experiment: Displacement of [3H]N-alpha-methylhistamine from mouse histamine H3 receptor.
Sequence of Histamine H3 receptor (Mus musculus, UniProt P58406) (P58406 whole entry): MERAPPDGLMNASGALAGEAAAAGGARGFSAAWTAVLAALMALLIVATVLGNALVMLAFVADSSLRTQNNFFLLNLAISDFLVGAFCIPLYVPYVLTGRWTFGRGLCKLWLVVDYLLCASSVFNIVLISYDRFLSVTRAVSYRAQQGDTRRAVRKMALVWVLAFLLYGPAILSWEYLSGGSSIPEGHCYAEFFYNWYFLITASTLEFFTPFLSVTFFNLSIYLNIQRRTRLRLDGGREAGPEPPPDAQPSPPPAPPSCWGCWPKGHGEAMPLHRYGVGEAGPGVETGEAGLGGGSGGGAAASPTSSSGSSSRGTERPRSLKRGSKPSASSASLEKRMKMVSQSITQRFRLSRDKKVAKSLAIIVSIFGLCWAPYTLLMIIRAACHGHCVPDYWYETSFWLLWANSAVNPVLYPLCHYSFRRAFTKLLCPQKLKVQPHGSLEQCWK
Series [6] is described as follows: AUC (0 to 6 hrs) in rat at 10 mg/kg, po. Type of series: ADME, organism-based. Details: time < 6 hr, dose 10 mg/kg, route oral. The settings on record: plasma.
Series [7] deals with Mus musculus. As to the kind of experiment: Antiobesity activity in STZ-induced diabetic ICR mouse DIO model at 30 mg/kg, po qd for 2 days. Also on record: dose 30 mg/kg. Type of series: functional, organism-based.
Series [8] deals with Mus musculus. As to the kind of experiment: Ex-vivo receptor occupancy in ICR mouse cortex assessed as displacement of [3H]N-alpha-methylhistamine from histamine H3 receptor at 30 mg/kg, po after 4 hrs post dose by scintillation counting. Type of series: functional.
Series [9] relates to Mus musculus. Description: Antiobesity activity in STZ-induced diabetic ICR mouse DIO model assessed as reduction in food intake at 30 mg/kg, po qd for 2 days relative to vehicle-treated control. Conditions: 48 h. Type of series: functional.
In series [10] the test system is Mus musculus. Description: Antidiabetic activity in STZ-induced diabetic ICR mouse DIO model assessed as glucose level at 30 mg/kg, po qd for 2 days. Type of series: functional.
For series [11], the system named is Mus musculus. Description: Antiobesity activity in STZ-induced diabetic ICR mouse DIO model assessed as change in body weight at 30 mg/kg, po qd for 2 days relative to vehicle-treated control. Type of series: functional.
The target of series [12] is T1, Cytochrome P450 3A4 (Homo sapiens, UniProt P08684). Description: Inhibition of CYP3A4 preincubated with compound. Type of series: ADME.
T1 sequence (P08684 whole entry): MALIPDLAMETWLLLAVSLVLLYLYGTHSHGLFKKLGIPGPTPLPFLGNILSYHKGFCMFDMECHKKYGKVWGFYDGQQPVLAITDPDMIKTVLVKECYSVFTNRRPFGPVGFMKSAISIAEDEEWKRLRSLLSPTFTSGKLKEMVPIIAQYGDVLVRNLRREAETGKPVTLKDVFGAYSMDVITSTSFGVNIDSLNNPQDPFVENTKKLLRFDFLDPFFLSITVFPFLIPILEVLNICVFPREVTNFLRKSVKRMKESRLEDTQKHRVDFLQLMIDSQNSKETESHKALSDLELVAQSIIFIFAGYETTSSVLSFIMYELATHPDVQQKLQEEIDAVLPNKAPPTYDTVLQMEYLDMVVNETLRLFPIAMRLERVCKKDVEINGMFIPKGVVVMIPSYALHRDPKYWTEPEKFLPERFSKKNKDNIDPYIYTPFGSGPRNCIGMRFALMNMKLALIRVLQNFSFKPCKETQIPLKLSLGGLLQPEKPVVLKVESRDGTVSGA
The target of series [13] is T2, Cytochrome P450 2D6 (Homo sapiens, UniProt P10635). Description: Inhibition of CYP2D6 preincubated with compound. Type of series: ADME.
T2 sequence (P10635 whole entry): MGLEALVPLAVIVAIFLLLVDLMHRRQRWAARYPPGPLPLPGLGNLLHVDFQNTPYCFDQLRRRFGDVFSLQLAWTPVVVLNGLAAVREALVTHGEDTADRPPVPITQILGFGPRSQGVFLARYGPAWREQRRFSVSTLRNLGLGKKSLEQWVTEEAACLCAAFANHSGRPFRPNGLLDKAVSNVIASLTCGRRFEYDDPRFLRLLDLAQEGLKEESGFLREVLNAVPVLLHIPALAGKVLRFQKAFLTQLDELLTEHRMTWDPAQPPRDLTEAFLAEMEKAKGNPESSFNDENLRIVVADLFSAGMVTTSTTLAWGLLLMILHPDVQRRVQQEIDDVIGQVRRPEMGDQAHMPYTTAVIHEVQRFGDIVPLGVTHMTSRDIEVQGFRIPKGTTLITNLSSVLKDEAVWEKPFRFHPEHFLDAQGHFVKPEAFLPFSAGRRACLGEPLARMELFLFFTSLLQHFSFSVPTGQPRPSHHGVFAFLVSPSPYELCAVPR
For series [14], the target named is T3, Cytochrome P450 2C9 (Homo sapiens, UniProt P11712). As to the kind of experiment: Inhibition of CYP2C9 preincubated with compound. Type of series: ADME. Conditions: read-out: INH.
T3 sequence (P11712 whole entry): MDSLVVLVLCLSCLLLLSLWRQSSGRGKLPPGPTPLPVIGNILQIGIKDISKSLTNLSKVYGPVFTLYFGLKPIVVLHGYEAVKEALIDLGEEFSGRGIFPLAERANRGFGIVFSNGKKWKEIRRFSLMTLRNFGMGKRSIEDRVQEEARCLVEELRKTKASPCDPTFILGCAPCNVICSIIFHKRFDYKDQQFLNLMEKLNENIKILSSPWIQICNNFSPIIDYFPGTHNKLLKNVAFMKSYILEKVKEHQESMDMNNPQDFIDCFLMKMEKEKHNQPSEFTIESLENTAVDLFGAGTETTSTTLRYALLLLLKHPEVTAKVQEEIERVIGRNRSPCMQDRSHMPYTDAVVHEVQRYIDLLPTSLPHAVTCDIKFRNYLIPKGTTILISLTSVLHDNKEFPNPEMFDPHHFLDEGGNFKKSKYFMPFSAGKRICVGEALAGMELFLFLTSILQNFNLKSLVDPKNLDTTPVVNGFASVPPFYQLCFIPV
A further series addresses hERG (Homo sapiens, UniProt Q12809). As to the kind of experiment: Inhibition of human ERG at 10 uM.
For series [15], the target named is T1, Cytochrome P450 3A4. Description: Inhibition of CYP3A4 co-incubated with compound. Type of series: ADME.
Series [16] addresses T2, Cytochrome P450 2D6. Description: Inhibition of CYP2D6 co-incubated with compound. Type of series: ADME.
Series [17] concerns the target T3, Cytochrome P450 2C9. As to the kind of experiment: Inhibition of CYP2C9 co-incubated with compound. Type of series: ADME.

The source made the active and inactive calls. The rule behind the calls is not given here. A value given as a limit tells only on which side of the number the result lay.

Sequence of hERG (Q12809 whole entry): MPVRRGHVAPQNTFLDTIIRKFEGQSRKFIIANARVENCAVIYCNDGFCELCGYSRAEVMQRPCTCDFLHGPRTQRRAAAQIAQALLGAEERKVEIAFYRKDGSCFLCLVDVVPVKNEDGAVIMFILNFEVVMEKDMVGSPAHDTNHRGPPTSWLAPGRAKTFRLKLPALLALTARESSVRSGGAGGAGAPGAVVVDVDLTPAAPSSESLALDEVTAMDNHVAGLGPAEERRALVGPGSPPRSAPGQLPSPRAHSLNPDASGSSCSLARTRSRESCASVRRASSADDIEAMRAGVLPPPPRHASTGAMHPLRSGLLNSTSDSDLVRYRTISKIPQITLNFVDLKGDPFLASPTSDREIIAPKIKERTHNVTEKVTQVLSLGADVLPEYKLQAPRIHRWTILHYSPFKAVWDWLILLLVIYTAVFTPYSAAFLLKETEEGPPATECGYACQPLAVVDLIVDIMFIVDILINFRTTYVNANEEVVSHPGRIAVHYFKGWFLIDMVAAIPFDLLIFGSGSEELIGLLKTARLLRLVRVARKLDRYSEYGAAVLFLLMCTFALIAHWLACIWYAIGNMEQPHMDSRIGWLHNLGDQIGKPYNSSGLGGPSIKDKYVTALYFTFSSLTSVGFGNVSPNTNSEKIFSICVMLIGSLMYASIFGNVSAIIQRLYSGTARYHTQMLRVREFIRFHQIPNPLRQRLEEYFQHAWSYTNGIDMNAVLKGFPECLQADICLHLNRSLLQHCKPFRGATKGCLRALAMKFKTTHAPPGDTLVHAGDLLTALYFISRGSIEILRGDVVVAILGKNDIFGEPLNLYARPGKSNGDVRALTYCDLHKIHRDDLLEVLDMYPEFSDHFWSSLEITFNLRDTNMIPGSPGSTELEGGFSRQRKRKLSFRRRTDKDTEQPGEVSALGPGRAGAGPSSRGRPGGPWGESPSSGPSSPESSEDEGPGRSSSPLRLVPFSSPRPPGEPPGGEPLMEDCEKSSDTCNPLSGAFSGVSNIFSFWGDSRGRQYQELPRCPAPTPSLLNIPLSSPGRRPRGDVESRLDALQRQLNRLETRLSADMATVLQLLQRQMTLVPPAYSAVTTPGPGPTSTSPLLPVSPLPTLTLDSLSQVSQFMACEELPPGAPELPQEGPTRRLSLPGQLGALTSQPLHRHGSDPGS

On to `O=C(c1cccc(-c2nnc(N3CCC(N4CCCCC4)CC3)s2)n1)N1CCC1`, for which the Occ with Mus musculus [1] came to 6%. For the same compound, the Ki at Histamine H3 receptor [2] stood at 4.4 nM.

`O=c1ccnc2c(-c3nnc(N4CCC(N5CCCCC5)CC4)s3)cccn12`: the concentration at 4 h in [3] amounted to 2670 ng/g. For the same compound, the result in the series with Mus musculus [4] and in the series with Mus musculus [7] was inactive. The Ki on Histamine H3 receptor [5] was 2.6 nM; on Histamine H3 receptor [2] it was 2.1 nM. In addition, the AUC(0-t) at 6 h in series [6] came out at 840 ng·h/mL. In the series with Mus musculus [1], the Occ worked out at 94%.

Consider `O=C(c1cccc(-c2nnc(N3CCC(N4CCCCC4)CC3)s2)c1)N1CCC1`, for which the inhibition constant Ki at Histamine H3 receptor [2] is 78.9 nM.

For the compound `CN(C)C(=O)c1cccc(-c2nnc(N3CCC(N4CCCCC4)CC3)s2)c1`, on Histamine H3 receptor [2], the Ki came to 192 nM.

`CC(=O)Nc1cccc(-c2nnc(N3CCC(N4CCCCC4)CC3)s2)c1`: the Ki on Histamine H3 receptor [2] was 16.5 nM.

For the compound `O=c1ccc2c(-c3nnc(N4CCC(N5CCCCC5)CC4)s3)cccc2[nH]1`, in the series on Mus musculus [1], the Occ came to 6%. The Ki at Histamine H3 receptor [2] came to 20 nM.

The compound `Cc1cc(=O)c2cc(-c3nnc(N4CCC(N5CCCCC5)CC4)s3)ccc2o1` displayed an AUC(0-t) at 6 h in series [6] of 8000 ng·h/mL. Moreover, on Histamine H3 receptor [2], the inhibition constant Ki turned out to be 82.8 nM.

For `Cc1nc2cc(-c3nnc(N4CCC(N5CCCCC5)CC4)s3)ccc2o1`, the Ki on Histamine H3 receptor [2] came out at 24.5 nM.

Turning to `CC(=O)c1cccc(-c2nnc(N3CCC(N4CCCCC4)CC3)s2)c1`, the Occ in the series on Mus musculus [8] is on record as 62%. Besides, in the series with Mus musculus [9], the inhibition in vivo at 30 mg/kg is 5.61%. Moreover, the values for the Activity in the series with Mus musculus [10] and in the series on Mus musculus [11] were 7.08 mg/mL and -1.01%, respectively. Besides, the INH on Cytochrome P450 3A4 [12], at Cytochrome P450 2D6 [13], at Cytochrome P450 3A4 [15], on Cytochrome P450 2D6 [16] and on Cytochrome P450 2C9 [17] was over 20 µM each time. Moreover, the IC50 on Cytochrome P450 2C9 [14] is over 20000 nM. Also, the inhibition at 10 µM against hERG stood at 40%.

In the case of `O=c1ccc2cc(-c3nnc(N4CCC(N5CCCCC5)CC4)s3)ccc2[nH]1`, the Occ with Mus musculus [1] is given as 25%. Also, the Ki on Histamine H3 receptor [2] came out at 10 nM.

Take `c1cc(-c2nnc(N3CCC(N4CCCCC4)CC3)s2)c2ccncc2c1`: the Occ with Mus musculus [1] was determined as 19%. Besides, the Ki at Histamine H3 receptor [2] was 17.8 nM.

As to `CC(O)c1cccc(-c2nnc(N3CCC(N4CCCCC4)CC3)s2)c1` (centres undefined), at Histamine H3 receptor [2], the inhibitory constant (Ki) is 29 nM.

With `O=c1cccnn1-c1cccc(-c2nnc(N3CCC(N4CCCCC4)CC3)s2)c1`, the Occ with Mus musculus [1] was found to be 25%. Also, on Histamine H3 receptor [2], the Ki amounted to 12 nM.

For the compound `Cc1nnc2ccc(-c3nnc(N4CCC(N5CCCCC5)CC4)s3)cn12`, in [3], the concentration at 4 h was determined as 25 ng/g. The result with Mus musculus [4] and with Mus musculus [7] was inactive. Moreover, the Ki came to 2.4 nM on Histamine H3 receptor [5] and 3.4 nM on Histamine H3 receptor [2]. The compound further returned an AUC(0-t) at 6 h in [6] of 1200 ng·h/mL. Besides, the Occ with Mus musculus [1] is on record as 34%.

On to `O=c1ccoc2ccc(-c3nnc(N4CCC(N5CCCCC5)CC4)s3)cc12`, for which the concentration at 4 h in series [3] came out at 268 ng/g. In addition, the result with Mus musculus [4] and in the series on Mus musculus [7] was inactive. Moreover, the Ki at Histamine H3 receptor [5] turned out to be 12 nM; at Histamine H3 receptor [2], 12.7 nM. The same compound showed an AUC(0-t) at 6 h in series [6] of 1300 ng·h/mL. In addition, in the series with Mus musculus [1], the Occ was determined as 84%.

`O=C1Cc2cc(-c3nnc(N4CCC(N5CCCCC5)CC4)s3)ccc2N1`: the Ki on Histamine H3 receptor [2] turned out to be 64.4 nM.

Regarding `c1cnc2c(-c3nnc(N4CCC(N5CCCCC5)CC4)s3)cccc2c1`, the concentration at 4 h in series [3] was determined as 110 ng/g. The result in the series with Mus musculus [4] and in the series with Mus musculus [7] was inactive. Besides, the Ki on Histamine H3 receptor [5] is 7.2 nM; on Histamine H3 receptor [2], 4.6 nM. The AUC(0-t) at 6 h in series [6] was determined as 530 ng·h/mL. For the same compound, the Occ in the series on Mus musculus [1] is recorded as 77%.

Regarding `O=c1ccnc2ccc(-c3nnc(N4CCC(N5CCCCC5)CC4)s3)cn12`, in series [3], the concentration at 4 h turned out to be 1340 ng/g. The Ki turned out to be 25 nM at Histamine H3 receptor [5] and 13 nM at Histamine H3 receptor [2]. The AUC(0-t) at 6 h in series [6] was 7300 ng·h/mL. The Occ in the series on Mus musculus [1] came out at 69%. Moreover, in the series with Mus musculus [9], the inhibition in vivo at 30 mg/kg was determined as 33.6%. The glucose change in the series with Mus musculus [10] is -87 mg/dL. Also, in the series on Mus musculus [11], the Activity is -3.02%. Besides, the INH at Cytochrome P450 3A4 [12], at Cytochrome P450 2D6 [13], on Cytochrome P450 3A4 [15], at Cytochrome P450 2D6 [16] and on Cytochrome P450 2C9 [17] was over 20 µM throughout. Moreover, the IC50 at Cytochrome P450 2C9 [14] was over 20000 nM. The inhibition at 10 µM against hERG worked out at 7%.

For `O=c1ccc2ccc(-c3nnc(N4CCC(N5CCCCC5)CC4)s3)cc2[nH]1`, the Occ in the series on Mus musculus [1] is 2%. The Ki on Histamine H3 receptor [2] was found to be 35.9 nM.

Turning to `Cc1nnc(-c2cccc(-c3nnc(N4CCC(N5CCCCC5)CC4)s3)c2)o1`, the concentration at 4 h in [3] was 1290 ng/g. In addition, the outcome in the series on Mus musculus [4] and with Mus musculus [7] was inactive. For the same compound, the Ki on Histamine H3 receptor [5] is 40 nM; at Histamine H3 receptor [2], 22.8 nM. For the same compound, the AUC(0-t) at 6 h in series [6] stood at 2500 ng·h/mL. The Occ in the series with Mus musculus [1] turned out to be 46%.

For `O=C1COc2ccc(-c3nnc(N4CCC(N5CCCCC5)CC4)s3)cc2N1`, on Histamine H3 receptor [2], the inhibition constant (Ki) came to 22.1 nM.

`c1cc(-c2nnc(N3CCC(N4CCCCC4)CC3)s2)n2nccc2c1`: the Occ in the series with Mus musculus [1] amounted to 22%. Further, at Histamine H3 receptor [2], the Ki amounted to 3.2 nM.

A word on the Ki: it is a measure of affinity in units of concentration, obtained from inhibition or displacement. In general, AUC(0-t) refers to exposure summed from dosing to a finite time, without extrapolation to infinity. By inhibition in vivo is commonly meant the percentage by which the read-out fell short of the control. As a reminder, the inhibition is the relative decrease from the control value, in per cent. A high value points to strong suppression.
